PMC9182199, “Borylated 2,3,4,5-Tetrachlorophthalimide and Their 2,3,4,5-Tetrachlorobenzamide Analogues: Synthesis, Their Glycosidase Inhibition and Anticancer Properties in View to Boron Neutron Capture Therapy” (Molecules, 2022)
Where two headings read alike, the source gives them in different places.

Legend:
[1] = test system: U87; assay: MTT cell growth inhibition: U87; format: cell-based; conditions: U87 glioblastoma; for GI50 / inhibition at 25 µM: Homo sapiens, U-87 MG; for GI50: read-out: GI50 = Concentration (µM) that inhibits cell growth by 50%, dose response; for inhibition at 25 µM: read-out: Percentage (%) Cell Growth Inhibition in response to 25 µM of Drug
Protocol: (§1) All test agents were prepared as stock solutions (20 mM) in dimethyl sulfoxide (DMSO) and stored at −20 °C. Cell lines used in the study included HT29 (colorectal carcinoma); U87, SJ-G2, (glioblastoma); MCF-7, (breast carcinoma); A2780 (ovarian carcinoma); H460 (lung carcinoma); A431 (skin carcinoma); Du145 (prostate carcinoma); BE2-C (neuroblastoma); MiaPaCa-2 (pancreatic carcinoma); and SMA560 (spontaneous murine astrocytoma), together with the one non-tumour-derived normal breast cell line (MCF10A). All cell lines were incubated in a humidified atmosphere 5% CO2 at 37 °C. The cancer cell lines were maintained in Dulbecco’s modified Eagle’s medium (DMEM; Sigma, Australia) supplemented with foetal bovine serum (10%), sodium pyruvate (10 mM), penicillin (100 IUmL^−1), streptomycin (100 µg mL^−1) and L-glutamine (2 mM).
(§2) Growth inhibition was determined by plating cells in duplicate in medium (100 µL) at a density of 2500–4000 cells per well in 96-well plates. On day 0 (24 h after plating), when the cells were in logarithmic growth, medium (100 µL) with or without the test agent was added to each well. After 72 h drug exposure, growth inhibitory effects were evaluated using the MTT (3-(4,5-dimethyltiazol-2-yl)-2,5-diphenyltetrazolium bromide) assay and absorbance read at 540 nm. The percentage growth inhibition was calculated at a fixed concentration of 25 µM, based on the difference between the optical density values on day 0 and those at the end of drug exposure. Each data point is the mean ± the standard error of the mean (SEM) calculated from three replicates which were performed on separate occasions and separate cell line passages.

[2] = test system: bovine liver β-glucuronidase; assay: Glycosidase inhibition, laboratory 2: bovine liver β-glucuronidase; format: biochemical; conditions: water
Protocol: (§3) All enzymes and para-nitrophenyl substrates were purchased from Sigma. Enzymes were assayed at 27 °C in 0.1 M citric acid/0.2 M disodium hydrogen phosphate buffers at the optimum pH for the enzyme. The incubation mixture consisted of 10 μL enzyme solution, 10 μL of 1 mg/mL aqueous solution of extract and 50 μL of the appropriate 5 mM para-nitrophenyl substrate made up in buffer at the optimum pH for the enzyme. The reactions were stopped by addition of 70 μL 0.4 M glycine (pH 10.4) during the exponential phase of the reaction, which had been determined at the beginning using uninhibited assays in which water replaced inhibitor. Final absorbances were read at 405 nm using a Versamax microplate reader (Molecular Devices). Assays were carried out in triplicate, and the values given are means of the three replicates per assay. All reactions run in water.

[3] = test system: A2780; assay: MTT cell growth inhibition: A2780; format: cell-based; conditions: A2780 ovarian carcinoma; for GI50 / inhibition at 25 µM: Homo sapiens; for GI50: read-out: GI50 = Concentration (µM) that inhibits cell growth by 50%, dose response; for inhibition at 25 µM: read-out: Percentage (%) Cell Growth Inhibition in response to 25 µM of Drug
Protocol: as §1, §2

[4] = test system: Bacillus α-glucosidase; assay: Glycosidase inhibition, laboratory 2: Bacillus α-glucosidase; format: biochemical; conditions: water
Protocol: as §3

[5] = test system: porcine kidney trehalase; assay: Glycosidase inhibition, laboratory 1: trehalase; format: biochemical; conditions: methanol
From the text: (§4) The enzymes α-glucosidase (from yeast), β-glucosidases (from almond and bovine liver), α-galactosidase (from coffee beans), β-galactosidase (from bovine liver), α-mannosidase (from Jack bean), β-mannosidase (from snail), α-L-rhamnosidase (from Penicillium decumbens), α-L-fucosidase (from bovine kidney), trehalase (from porcine kidney), β-glucuronidases (from E. coli and bovine liver), amyloglucosidase (from A. niger), para-nitrophenyl glycosides, and various disaccharides were purchased from Sigma-Aldrich Co (St Louis, MO, USA).
(§5) Brush border membranes were prepared from the rat small intestine according to the method of Kessler et al. and were assayed at pH 6.8 for rat intestinal maltase using maltose. For rat intestinal maltase, porcine kidney trehalase, and A. niger amyloglucosidase activities, the reaction mixture contained 25 mM maltose and the appropriate amount of enzyme, and the incubations were performed for 10–30 min at 37 °C. The reaction was stopped by heating at 100 °C for 3 min. After centrifugation (600× g; 10 min), the resulting reaction mixture was added to the Glucose CII-test Wako (Wako Pure Chemical Ind., Osaka, Japan). The absorbance at 505 nm was measured to determine the amount of the released D-glucose. Other glycosidase activities were determined using an appropriate para-nitrophenyl glycoside as substrate at the optimum pH of each enzyme. The reaction mixture contained 2 mM of the substrate and the appropriate amount of enzyme. The reaction was stopped by addition of 400 mM Na2CO3. The released para-nitrophenol was measured spectrometrically at 400 nm. All reactions run in methanol.

[6] = test system: Du145; assay: MTT cell growth inhibition: Du145; format: cell-based; conditions: 72 h; for inhibition at 25 µM: Homo sapiens, DU-145, Du145 prostate carcinoma, read-out: Percentage (%) Cell Growth Inhibition in response to 25 µM of Drug
Protocol: as §1, §2

[7] = test system: rat intestinal maltase α-glucosidase; assay: Glycosidase inhibition, laboratory 1: rat intestinal maltase; format: biochemical; conditions: methanol; for IC50: rat intestinal maltase α-glucosidase
From the text: as §4, §5

[8] = target: rice α-glucosidase (Oryza sativa subsp. japonica, UniProt Q653V7); assay: Glycosidase inhibition, laboratory 1: rice α-glucosidase; format: biochemical; conditions: methanol
rice α-glucosidase, sequence (Q653V7 34-885): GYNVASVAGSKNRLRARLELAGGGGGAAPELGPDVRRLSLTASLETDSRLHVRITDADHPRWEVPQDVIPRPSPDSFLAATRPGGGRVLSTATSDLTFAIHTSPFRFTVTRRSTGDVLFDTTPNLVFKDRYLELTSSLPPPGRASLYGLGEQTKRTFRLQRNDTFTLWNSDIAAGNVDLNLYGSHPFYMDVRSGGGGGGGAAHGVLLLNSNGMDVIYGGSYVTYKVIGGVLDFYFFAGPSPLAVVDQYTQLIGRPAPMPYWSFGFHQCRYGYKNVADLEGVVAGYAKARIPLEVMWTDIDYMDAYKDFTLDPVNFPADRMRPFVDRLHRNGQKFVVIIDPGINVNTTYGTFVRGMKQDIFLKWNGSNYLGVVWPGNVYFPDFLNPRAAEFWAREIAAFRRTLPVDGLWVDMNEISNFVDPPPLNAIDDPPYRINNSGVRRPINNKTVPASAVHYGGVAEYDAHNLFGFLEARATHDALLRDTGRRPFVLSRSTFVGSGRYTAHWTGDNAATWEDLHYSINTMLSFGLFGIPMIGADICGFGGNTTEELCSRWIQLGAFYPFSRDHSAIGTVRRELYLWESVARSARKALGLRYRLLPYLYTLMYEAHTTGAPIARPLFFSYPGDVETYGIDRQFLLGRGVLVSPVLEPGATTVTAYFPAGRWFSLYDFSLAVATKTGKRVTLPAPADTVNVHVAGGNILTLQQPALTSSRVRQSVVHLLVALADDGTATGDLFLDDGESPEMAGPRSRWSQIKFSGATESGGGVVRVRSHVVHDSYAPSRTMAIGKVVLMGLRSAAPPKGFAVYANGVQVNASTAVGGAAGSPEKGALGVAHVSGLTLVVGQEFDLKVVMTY

[9] = test system: BE2-C; assay: MTT cell growth inhibition: BE2-C; format: cell-based; conditions: BE2-C neuroblastoma, 72 h; for inhibition at 25 µM: Homo sapiens, BE(2)-C, read-out: Percentage (%) Cell Growth Inhibition in response to 25 µM of Drug
Protocol: as §1, §2

[10] = test system: SJ-G2; assay: MTT cell growth inhibition: SJ-G2; format: cell-based; conditions: SJ-G2 glioblastoma, 72 h; for inhibition at 25 µM: read-out: Percentage (%) Cell Growth Inhibition in response to 25 µM of Drug
Protocol: as §1, §2

[11] = test system: snail β-mannosidase; assay: Glycosidase inhibition, laboratory 1: snail β-mannosidase; format: biochemical; conditions: methanol
From the text: as §4, §5

[12] = target: T1, E. coli β-glucuronidase (Escherichia coli, UniProt P05804); assay: Glycosidase inhibition, laboratory 1: E. coli β-glucuronidase; format: biochemical; conditions: for inhibition at 100 µM: read-out: inhibition % at 100 μM
T1 construct: purchased Sigma-Aldrich Co
T1 sequence (P05804 whole entry): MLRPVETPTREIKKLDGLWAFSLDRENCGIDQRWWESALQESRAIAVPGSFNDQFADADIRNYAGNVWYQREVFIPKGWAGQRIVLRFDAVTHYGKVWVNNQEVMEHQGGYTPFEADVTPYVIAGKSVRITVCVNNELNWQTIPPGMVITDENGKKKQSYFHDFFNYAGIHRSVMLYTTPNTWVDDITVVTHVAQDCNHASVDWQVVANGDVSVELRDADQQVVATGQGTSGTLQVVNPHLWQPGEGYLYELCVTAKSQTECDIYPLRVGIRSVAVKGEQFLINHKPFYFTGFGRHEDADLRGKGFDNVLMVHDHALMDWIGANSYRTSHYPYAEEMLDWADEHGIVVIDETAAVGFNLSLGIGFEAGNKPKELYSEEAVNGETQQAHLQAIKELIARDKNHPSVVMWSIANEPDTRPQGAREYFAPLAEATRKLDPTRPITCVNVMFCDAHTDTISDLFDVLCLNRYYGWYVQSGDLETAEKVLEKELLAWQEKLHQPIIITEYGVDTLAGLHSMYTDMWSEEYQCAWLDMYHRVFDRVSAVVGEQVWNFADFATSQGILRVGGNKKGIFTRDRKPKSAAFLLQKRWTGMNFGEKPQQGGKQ
From the text: as §4, §5

[13] = test system: MCF10A; assay: MTT cell growth inhibition: MCF10A normal breast; format: cell-based; conditions: 72 h; for inhibition at 25 µM: Homo sapiens, MCF-10A, read-out: Percentage (%) Cell Growth Inhibition in response to 25 µM of Drug
Protocol: as §1
The non-cancer MCF10A cell line was maintained in DMEM:F12 (1:1) cell culture media, 5% heat-inactivated horse serum, supplemented with penicillin (50 IUmL^−1), streptomycin (50 µg mL^−1), HEPES (20 mM), L-glutamine (2 mM), epidermal growth factor (20 ng mL^−1), hydrocortisone (500 ng mL^−1), cholera toxin (100 ng mL^−1) and insulin ([…]).
as §2

[14] = target: T2, yeast α-glucosidase (Saccharomyces cerevisiae, UniProt P53341); assay: Glycosidase inhibition, laboratory 2: yeast α-glucosidase; format: biochemical; conditions: for inhibition at 400 µM: read-out: % inhibition at ~400 μM, water
T2 construct: purchased Sigma
T2 sequence (P53341 whole entry): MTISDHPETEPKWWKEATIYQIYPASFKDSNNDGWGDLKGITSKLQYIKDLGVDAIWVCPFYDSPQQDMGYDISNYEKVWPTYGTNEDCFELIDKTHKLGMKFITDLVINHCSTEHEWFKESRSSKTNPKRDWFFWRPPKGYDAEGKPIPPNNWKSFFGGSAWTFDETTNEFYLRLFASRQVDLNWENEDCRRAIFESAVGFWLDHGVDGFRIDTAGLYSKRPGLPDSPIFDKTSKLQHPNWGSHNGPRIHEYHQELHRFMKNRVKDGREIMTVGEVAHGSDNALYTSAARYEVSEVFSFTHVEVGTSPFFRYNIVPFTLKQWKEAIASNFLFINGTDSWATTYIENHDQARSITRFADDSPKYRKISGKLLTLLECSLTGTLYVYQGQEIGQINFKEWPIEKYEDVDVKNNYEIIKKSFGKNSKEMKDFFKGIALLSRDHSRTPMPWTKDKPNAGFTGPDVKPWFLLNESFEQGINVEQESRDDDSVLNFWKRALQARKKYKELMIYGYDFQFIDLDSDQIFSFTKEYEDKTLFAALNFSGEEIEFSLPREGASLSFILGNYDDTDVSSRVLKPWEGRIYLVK
Protocol: as §3

Compound | inhibition at 25 µM ([1]; 25 µM, 72 h, MTT) [%] | % inhibition at ~400 μM [2] [%] | inhibition at 25 µM ([3]; 25 µM, 72 h, MTT) [%] | % inhibition at ~400 μM [4] [%] | inhibition at 25 µM [6] [%] | inhibition at 25 µM [9] [%] | inhibition at 25 µM [10] [%] | inhibition at 25 µM [13] [%] | inhibition at 400 µM [14] [%] | inhibition % at 100 μM [5] | IC50 [7] [µM] | inhibition at 100 µM [8] [%] | inhibition % at 100 μM [11] | further results
CC1(C)OB(c2ccccc2NC(=O)c2cc(Cl)c(Cl)c(Cl)c2Cl)OC1(C)C [ortho 5, 2,3,4,5-Tetrachloro-N-(2-(4,4,5,5-tetramethyl-1,3,2-dioxaborolan-2-yl)phenyl)benzamide] | 58 ± 5 | −3.5 | 97 ± 2 | 14.4 | > 100 | > 100 | 92 ± 5 | 58 ± 9 | 17.3 |  |  |  |  | GI50 [1]: 25 ± 2.6 µM; GI50 [3]: 16 ± 1.2 µM; inhibition % at 10 μM ([5]; 10 μM): ^cNI ^d (1.2%); inhibition % at 10 μM ([7]; rat intestinal maltase, 10 μM): ^cNI ^d(3%); inhibition at 10 µM ([8]; 10 μM): 0%; inhibition % at 10 μM ([11]; 10 μM): ^cNI ^d (0%); inhibition at 10 µM ([12]; E. coli β-glucuronidase, 10 μM, methanol, read-out: inhibition % at 10 μM): 3.8%
CC1(C)OB(c2cccc(NC(=O)c3cc(Cl)c(Cl)c(Cl)c3Cl)c2)OC1(C)C [meta 5, 2,3,4,5-tetrachloro-N-(3-(4,4,5,5-tetramethyl-1,3,2-dioxaborolan-2-yl)phenyl)benzamide] | < 0 | −5.7 | 49 ± 4 | 54.1 | < 0 | 3 ± 4 | < 0 | < 0 | 82.8 | ^aNI ^b (0%) | 274 | 45.5 | ^aNI ^b (39.1%) | IC50 ([12]; E. coli β-glucuronidase, methanol): 932 µM
CC1(C)OB(c2ccc(NC(=O)c3cc(Cl)c(Cl)c(Cl)c3Cl)cc2)OC1(C)C [para 5, 2,3,4,5-tetrachloro-N-(4-(4,4,5,5-tetramethyl-1,3,2-dioxaborolan-2-yl)phenyl)benzamide] | 21 ± 16 | −2.2 | 50 ± 1 | 20 | 1 ± 13 | 54 ± 1 | 28 ± 6 | 2 ± 11 | 38.4 | ^aNI ^b (0%) | 188 | 0 | ^aNI ^b (30.4%) | inhibition at 100 µM ([12]; E. coli β-glucuronidase, 100 μM, methanol): 45.5%
N[C@@H](Cc1ccc(B(O)O)cc1)C(=O)O [BPA, 4-borono-L-phenylalanine, reference compound] | < 0 |  | 4 ± 1 |  | 19 ± 10 | 13 ± 10 | 5 ± 8 | 4 ± 1 | 2.9 | ^cNI ^d (0%) |  |  | ^cNI ^d (2.1%) | % inhibition at ~400 μM ([2]; 400 µM): −0.7%; % inhibition at ~400 μM ([4]; 400 µM): 19.9%; inhibition % at 100 μM ([7]; rat intestinal maltase): ^cNI ^d(0%)
CC1(C)OB(c2ccc(CN3C(=O)c4c(Cl)c(Cl)c(Cl)c(Cl)c4C3=O)cc2)OC1(C)C [para 3, 4,5,6,7-Tetrachloro-2-(4-(4,4,5,5-tetramethyl-1,3,2-dioxaborolan-2-yl)benzyl)isoindoline-1,3-dione] | > 100 | 2.1 | > 100 | 17.9 | > 100 | > 100 | > 100 | > 100 | 29.3 | ^aNI ^b (0%) |  | 5.6 | ^aNI ^b (0%) | GI50 [1]: 4.2 ± 1 µM; GI50 [3]: 11 ± 1.1 µM; inhibition % at 100 μM ([7]; rat intestinal maltase): ^aNI ^b (12.2%); inhibition at 100 µM [12]: 2.2%
CC1(C)OB(c2ccccc2CNC(=O)c2cc(Cl)c(Cl)c(Cl)c2Cl)OC1(C)C [ortho 8, 2,3,4,5-tetrachloro-N-(2-(4,4,5,5-tetramethyl-1,3,2-dioxaborolan-2-yl)benzyl)benzamide] | < 0 | −6.3 | 19 ± 10 | 23.7 | < 0 | 2 ± 5 | < 0 | < 0 | 68.9 | ^aNI ^b (16.8%) | 305 | 0 | ^aNI ^b (39%) | inhibition at 100 µM [12]: 41.7%
Borocaptate sodium [BSH, reference compound] |  | 31.6 |  | 48.1 |  |  |  |  |  |  |  |  |  | Percentage (%) Cell Growth Inhibition in response to 25 µM of Drug ([1]; 25 µM, 72 h, MTT): <0%; Percentage (%) Cell Growth Inhibition in response to 25 µM of Drug ([3]; 25 µM, 72 h, MTT): 2 ± 5%; inhibition % at 1000 μM ([5]; 1000 μM): ^aNI ^b (4.2%); Percentage (%) Cell Growth Inhibition in response to 25 µM of Drug ([6]; Du145 prostate carcinoma): 0 ± 8%; inhibition % at 1000 μM ([7]; rat intestinal maltase, 1000 μM): ^aNI ^b(0%); inhibition % at 1000 μM ([8]; 1000 μM): ^aNI ^b(0%); Percentage (%) Cell Growth Inhibition in response to 25 µM of Drug [9]: 10 ± 6%; Percentage (%) Cell Growth Inhibition in response to 25 µM of Drug [10]: 3 ± 8%; inhibition % at 1000 μM ([11]; 1000 μM): ^aNI ^b (19.2%); inhibition % at 1000 μM ([12]; E. coli β-glucuronidase, 1000 μM, methanol): ^aNI ^b (6%); Percentage (%) Cell Growth Inhibition in response to 25 µM of Drug ([13]; MCF10A breast (normal), 25 µM, MTT): 8 ± 3%; % inhibition at ~400 μM ([14]; water): 59%
